Results from patent publication US12473278B2 (Industry—University Cooperation Foundation Hangyang …, priority 2019, dated 2025).
Like-named read-outs stand apart in the source and are kept apart here.

Experiments:
FLT3 [1] = biological target: T1, FLT3 (Homo sapiens (Human), UniProt P36888); assay: Measurement of FLT3 enzyme activity; format: biochemical
From the text: Measurement of FLT3 Enzyme Activity
A change in FLT3 enzyme activity by treatment with the benzimidazole derivatives of the following Table 1 according to the present invention was confirmed by IC50.

ABL1 = ABL1 (Homo sapiens (Human), UniProt P00519); assay: Kinase panel screening; format: biochemical; settings: read-out: % inhibition rate
CDK2/cyclin E = CDK2/cyclin E (Homo sapiens (Human), UniProt P24941); assay: Kinase panel screening; format: biochemical; settings: read-out: % inhibition rate
FMS = FMS (Homo sapiens (Human), UniProt P07333); assay: Kinase panel screening; format: biochemical; settings: read-out: % inhibition rate
GSK3b = GSK3b (Homo sapiens (Human), UniProt P49841); assay: Kinase panel screening; format: biochemical; settings: read-out: % inhibition rate
KDR/VEGFR2 = KDR/VEGFR2 (Homo sapiens (Human), UniProt P35968); assay: Kinase panel screening; format: biochemical; settings: read-out: % inhibition rate
LCK = LCK (Homo sapiens (Human), UniProt P06239); assay: Kinase panel screening; format: biochemical; settings: read-out: % inhibition rate
MTOR/FRAP1 = MTOR/FRAP1 (Homo sapiens (Human), UniProt P42345); assay: Kinase panel screening; format: biochemical; settings: read-out: % inhibition rate
PLK1 = PLK1 (Homo sapiens (Human), UniProt P53350); assay: Kinase panel screening; format: biochemical; settings: read-out: % inhibition rate
SYK = SYK (Homo sapiens (Human), UniProt P43405); assay: Kinase panel screening; format: biochemical; settings: single dose of 10 μM, read-out: % inhibition rate
AKT1 = AKT1 (Homo sapiens (Human), UniProt P31749); assay: Kinase panel screening; settings: read-out: % inhibition rate
From the text: (§1) Measurement of Inhibitory Activity Against Various Protein Kinases

ALK = ALK (Homo sapiens (Human), UniProt Q9UM73); assay: Kinase panel screening; settings: read-out: % inhibition rate
From the text: as §1

Aurora A = Aurora A (Homo sapiens (Human), UniProt O14965); assay: Kinase panel screening; settings: read-out: % inhibition rate
From the text: as §1

BRAF = BRAF (Homo sapiens (Human), UniProt P15056); assay: Kinase panel screening; settings: read-out: % inhibition rate
From the text: as §1

BRAF (V599E) = BRAF (V599E) (Homo sapiens (Human), UniProt P15056, V600E); assay: Kinase panel screening; settings: read-out: % inhibition rate
From the text: as §1

BTK = BTK (Homo sapiens (Human), UniProt Q06187); assay: Kinase panel screening; settings: read-out: % inhibition rate
From the text: as §1

c-Kit = c-Kit (Homo sapiens (Human), UniProt P10721); assay: Kinase panel screening; settings: read-out: % inhibition rate
From the text: as §1

c-MET = c-MET (Homo sapiens (Human), UniProt P08581); assay: Kinase panel screening; settings: read-out: % inhibition rate
From the text: as §1

c-Src = c-Src (Homo sapiens (Human), UniProt P12931); assay: Kinase panel screening; settings: read-out: % inhibition rate
From the text: as §1

CDK1/cyclinB = CDK1/cyclinB (Homo sapiens (Human), UniProt P06493); assay: Kinase panel screening; settings: read-out: % inhibition rate
From the text: as §1

EGFR = EGFR (Homo sapiens (Human), UniProt P00533); assay: Kinase panel screening; settings: read-out: % inhibition rate
From the text: as §1

ERK1 = ERK1 (Homo sapiens (Human), UniProt P27361); assay: Kinase panel screening; settings: read-out: % inhibition rate
From the text: as §1

FGFR3 = FGFR3 (Homo sapiens (Human), UniProt P22607); assay: Kinase panel screening; settings: read-out: % inhibition rate
From the text: as §1

FLT1/VEGFR1 = FLT1/VEGFR1 (Homo sapiens (Human), UniProt P17948); assay: Kinase panel screening; settings: read-out: % inhibition rate
From the text: as §1

FLT3 [2] = biological target: T1, FLT3; assay: Kinase panel screening; settings: read-out: % inhibition rate
From the text: as §1

IGFIR = IGFIR (Homo sapiens (Human), UniProt P08069); assay: Kinase panel screening; settings: read-out: % inhibition rate
From the text: as §1

JAK3 = JAK3 (Homo sapiens (Human), UniProt P52333); assay: Kinase panel screening; settings: read-out: % inhibition rate
From the text: as §1

JNK3 = JNK3 (Homo sapiens (Human), UniProt P53779); assay: Kinase panel screening; settings: read-out: % inhibition rate
From the text: as §1

LYN = LYN (Homo sapiens (Human), UniProt P07948); assay: Kinase panel screening; settings: read-out: % inhibition rate
From the text: as §1

MEK1 = MEK1 (Homo sapiens (Human), UniProt Q02750); assay: Kinase panel screening; settings: read-out: % inhibition rate
From the text: as §1

P38a/MAPK14 = P38a/MAPK14 (Homo sapiens (Human), UniProt Q16539); assay: Kinase panel screening; settings: read-out: % inhibition rate
From the text: as §1

PKA = PKA (Homo sapiens (Human), UniProt P17612); assay: Kinase panel screening; settings: read-out: % inhibition rate
From the text: as §1

RAFI = RAFI (Homo sapiens (Human), UniProt P04049); assay: Kinase panel screening; settings: read-out: % inhibition rate
From the text: as §1

RON/MSTIR = RON/MSTIR (Homo sapiens (Human), UniProt Q04912); assay: Kinase panel screening; settings: read-out: % inhibition rate
From the text: as §1

ROS/ROS1 = ROS/ROS1 (Homo sapiens (Human), UniProt P08922); assay: Kinase panel screening; settings: read-out: % inhibition rate
From the text: as §1

T1 sequence (P36888 27-993): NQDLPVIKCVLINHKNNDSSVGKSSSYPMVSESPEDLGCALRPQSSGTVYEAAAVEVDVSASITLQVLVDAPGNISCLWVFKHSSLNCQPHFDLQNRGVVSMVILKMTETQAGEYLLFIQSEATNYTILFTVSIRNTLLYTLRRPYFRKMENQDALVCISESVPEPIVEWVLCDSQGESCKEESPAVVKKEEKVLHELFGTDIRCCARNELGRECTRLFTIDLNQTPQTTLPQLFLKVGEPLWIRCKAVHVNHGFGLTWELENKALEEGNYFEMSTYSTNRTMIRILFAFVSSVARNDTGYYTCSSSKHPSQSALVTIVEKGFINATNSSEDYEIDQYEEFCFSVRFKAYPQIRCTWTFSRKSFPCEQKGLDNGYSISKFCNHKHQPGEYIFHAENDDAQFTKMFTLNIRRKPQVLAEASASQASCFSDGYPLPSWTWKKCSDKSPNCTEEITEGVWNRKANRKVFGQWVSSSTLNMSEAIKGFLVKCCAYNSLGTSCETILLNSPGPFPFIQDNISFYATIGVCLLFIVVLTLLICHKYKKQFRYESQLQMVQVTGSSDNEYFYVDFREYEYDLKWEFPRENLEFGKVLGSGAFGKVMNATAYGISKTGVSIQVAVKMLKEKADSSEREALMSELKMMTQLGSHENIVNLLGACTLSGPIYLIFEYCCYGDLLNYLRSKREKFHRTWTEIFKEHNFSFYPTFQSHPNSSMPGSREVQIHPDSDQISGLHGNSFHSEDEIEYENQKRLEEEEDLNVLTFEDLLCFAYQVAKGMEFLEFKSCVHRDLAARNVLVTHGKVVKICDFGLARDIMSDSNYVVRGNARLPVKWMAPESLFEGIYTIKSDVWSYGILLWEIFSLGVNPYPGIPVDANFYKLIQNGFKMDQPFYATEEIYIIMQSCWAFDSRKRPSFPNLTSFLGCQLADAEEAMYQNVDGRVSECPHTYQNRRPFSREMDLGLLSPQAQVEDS
LYN, sequence (P07948 whole entry): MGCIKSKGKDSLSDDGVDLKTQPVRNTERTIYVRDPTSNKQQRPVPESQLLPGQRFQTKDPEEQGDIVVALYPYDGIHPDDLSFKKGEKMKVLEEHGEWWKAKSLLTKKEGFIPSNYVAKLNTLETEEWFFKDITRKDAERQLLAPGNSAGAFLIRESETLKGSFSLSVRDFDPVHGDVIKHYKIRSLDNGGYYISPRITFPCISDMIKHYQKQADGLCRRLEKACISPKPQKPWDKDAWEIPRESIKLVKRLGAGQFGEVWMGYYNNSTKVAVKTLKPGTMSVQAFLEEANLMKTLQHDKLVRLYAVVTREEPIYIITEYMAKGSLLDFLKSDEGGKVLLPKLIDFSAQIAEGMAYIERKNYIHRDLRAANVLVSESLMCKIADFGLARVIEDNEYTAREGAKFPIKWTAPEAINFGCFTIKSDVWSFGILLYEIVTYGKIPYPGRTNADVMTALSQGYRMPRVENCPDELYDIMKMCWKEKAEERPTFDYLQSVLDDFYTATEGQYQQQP
P38a/MAPK14, sequence (Q16539 whole entry): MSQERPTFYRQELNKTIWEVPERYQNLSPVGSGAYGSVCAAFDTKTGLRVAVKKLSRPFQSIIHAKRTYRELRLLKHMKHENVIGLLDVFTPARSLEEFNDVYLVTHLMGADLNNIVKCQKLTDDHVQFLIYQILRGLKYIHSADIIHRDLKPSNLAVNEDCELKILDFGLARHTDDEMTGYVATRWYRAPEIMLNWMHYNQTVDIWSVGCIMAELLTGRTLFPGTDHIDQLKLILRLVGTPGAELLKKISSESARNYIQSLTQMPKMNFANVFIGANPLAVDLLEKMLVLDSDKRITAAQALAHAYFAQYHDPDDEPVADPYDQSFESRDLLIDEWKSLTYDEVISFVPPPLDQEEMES
ALK, sequence (Q9UM73 19-1620, species assumed): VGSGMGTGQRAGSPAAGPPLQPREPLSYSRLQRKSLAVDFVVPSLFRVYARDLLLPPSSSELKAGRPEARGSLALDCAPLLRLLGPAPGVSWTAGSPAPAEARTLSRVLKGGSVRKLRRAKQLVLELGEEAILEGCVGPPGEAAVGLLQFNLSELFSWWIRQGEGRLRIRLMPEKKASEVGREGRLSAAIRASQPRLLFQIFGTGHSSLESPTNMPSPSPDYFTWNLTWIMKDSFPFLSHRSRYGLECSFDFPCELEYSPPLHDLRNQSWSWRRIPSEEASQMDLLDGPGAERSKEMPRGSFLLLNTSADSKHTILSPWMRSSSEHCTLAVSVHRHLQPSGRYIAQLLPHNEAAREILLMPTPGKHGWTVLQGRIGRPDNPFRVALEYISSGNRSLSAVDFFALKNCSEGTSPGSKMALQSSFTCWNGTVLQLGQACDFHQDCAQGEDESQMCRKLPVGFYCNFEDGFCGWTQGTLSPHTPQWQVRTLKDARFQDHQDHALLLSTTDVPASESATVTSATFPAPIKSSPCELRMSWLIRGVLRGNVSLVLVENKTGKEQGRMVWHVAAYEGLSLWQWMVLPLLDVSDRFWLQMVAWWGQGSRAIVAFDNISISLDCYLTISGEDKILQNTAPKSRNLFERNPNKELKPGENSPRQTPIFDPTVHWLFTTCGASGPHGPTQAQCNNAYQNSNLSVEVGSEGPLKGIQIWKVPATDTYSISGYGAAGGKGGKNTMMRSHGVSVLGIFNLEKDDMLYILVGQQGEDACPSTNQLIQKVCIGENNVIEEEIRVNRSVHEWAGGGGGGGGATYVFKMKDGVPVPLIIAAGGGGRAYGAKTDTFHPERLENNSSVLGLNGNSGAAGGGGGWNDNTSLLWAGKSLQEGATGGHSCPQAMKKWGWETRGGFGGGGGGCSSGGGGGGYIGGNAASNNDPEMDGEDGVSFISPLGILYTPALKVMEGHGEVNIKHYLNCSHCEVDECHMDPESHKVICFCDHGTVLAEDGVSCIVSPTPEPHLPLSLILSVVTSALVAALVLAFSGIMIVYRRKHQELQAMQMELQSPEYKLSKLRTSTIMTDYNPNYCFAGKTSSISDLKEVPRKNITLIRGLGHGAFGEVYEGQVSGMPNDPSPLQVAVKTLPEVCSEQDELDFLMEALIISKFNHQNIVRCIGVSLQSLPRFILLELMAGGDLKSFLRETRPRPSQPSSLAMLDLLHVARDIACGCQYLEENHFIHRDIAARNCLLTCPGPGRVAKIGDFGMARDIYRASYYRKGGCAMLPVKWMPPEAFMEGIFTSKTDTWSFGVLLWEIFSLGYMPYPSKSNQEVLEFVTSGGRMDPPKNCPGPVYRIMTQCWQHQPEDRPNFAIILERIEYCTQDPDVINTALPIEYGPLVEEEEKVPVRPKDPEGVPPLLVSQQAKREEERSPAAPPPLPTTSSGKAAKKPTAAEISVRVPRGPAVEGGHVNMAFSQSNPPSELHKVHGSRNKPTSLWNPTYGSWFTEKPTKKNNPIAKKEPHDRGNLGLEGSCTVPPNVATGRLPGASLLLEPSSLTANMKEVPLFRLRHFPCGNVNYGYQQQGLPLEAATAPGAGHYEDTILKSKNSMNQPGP
RON/MSTIR, sequence (Q04912 25-1400): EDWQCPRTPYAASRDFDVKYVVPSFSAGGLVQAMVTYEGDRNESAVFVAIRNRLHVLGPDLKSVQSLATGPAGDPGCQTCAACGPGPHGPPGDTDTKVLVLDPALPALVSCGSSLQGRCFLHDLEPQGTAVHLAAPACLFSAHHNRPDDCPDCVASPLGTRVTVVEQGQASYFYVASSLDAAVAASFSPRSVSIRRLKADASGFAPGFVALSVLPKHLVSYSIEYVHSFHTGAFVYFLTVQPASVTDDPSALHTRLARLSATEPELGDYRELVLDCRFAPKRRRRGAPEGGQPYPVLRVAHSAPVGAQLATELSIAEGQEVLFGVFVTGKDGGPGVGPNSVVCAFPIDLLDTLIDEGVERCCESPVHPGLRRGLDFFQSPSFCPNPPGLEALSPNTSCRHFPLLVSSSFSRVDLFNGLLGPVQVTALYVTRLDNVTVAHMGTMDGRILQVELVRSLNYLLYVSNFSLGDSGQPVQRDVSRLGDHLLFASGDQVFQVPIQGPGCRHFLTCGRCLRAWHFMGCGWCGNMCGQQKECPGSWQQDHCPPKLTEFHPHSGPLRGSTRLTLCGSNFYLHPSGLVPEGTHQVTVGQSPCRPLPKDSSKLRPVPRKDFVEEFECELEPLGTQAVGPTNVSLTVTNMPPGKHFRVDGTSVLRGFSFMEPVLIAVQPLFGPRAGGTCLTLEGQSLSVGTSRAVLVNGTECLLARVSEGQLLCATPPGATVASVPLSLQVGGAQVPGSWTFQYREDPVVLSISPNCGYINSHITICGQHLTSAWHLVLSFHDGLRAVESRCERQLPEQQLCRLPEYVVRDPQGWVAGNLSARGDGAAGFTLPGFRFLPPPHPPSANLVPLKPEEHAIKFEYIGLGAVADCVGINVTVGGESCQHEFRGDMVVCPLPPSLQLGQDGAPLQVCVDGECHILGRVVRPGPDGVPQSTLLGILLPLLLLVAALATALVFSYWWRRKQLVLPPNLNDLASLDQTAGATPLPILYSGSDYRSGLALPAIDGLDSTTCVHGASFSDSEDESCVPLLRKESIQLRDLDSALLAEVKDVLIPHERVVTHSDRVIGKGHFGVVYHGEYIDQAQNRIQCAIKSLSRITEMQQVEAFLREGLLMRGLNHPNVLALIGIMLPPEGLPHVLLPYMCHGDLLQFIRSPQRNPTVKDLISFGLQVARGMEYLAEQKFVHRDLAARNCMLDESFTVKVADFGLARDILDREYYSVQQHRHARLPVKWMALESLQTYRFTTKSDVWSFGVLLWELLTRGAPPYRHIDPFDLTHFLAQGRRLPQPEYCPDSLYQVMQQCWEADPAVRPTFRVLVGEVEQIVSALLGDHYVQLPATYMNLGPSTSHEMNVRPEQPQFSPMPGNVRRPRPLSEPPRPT

## Cc1oncc1C(=O)Nc1ccc2[nH]c(-c3cc(N4CCOCC4)cc(C(F)(F)F)c3)nc2c1 [Compound 5b, 5-methyl-N-(2-(3-morpholino-5-(trifluoromethyl)phenyl)-1H-benz[d]imidazol-5-yl)isoxazole-4-carboxamide]
FLT3 [1]; FLT3 enzyme activity, read-out: FLT3 (IC50)
  IC50: 3 to 10 µM
FLT3 [1]; FLT3 kinase activity, read-out: IC50 against FLT3
  IC50: 7.94 µM
ABL1
  inhibition at 10 µM: 0%
CDK2/cyclin E
  inhibition at 10 µM: 0%
FMS
  inhibition at 10 µM: 0%
GSK3b
  inhibition at 10 µM: 2.8%
KDR/VEGFR2
  inhibition at 10 µM: 0%
LCK
  inhibition at 10 µM: 0%
MTOR/FRAP1
  inhibition at 10 µM: 0%
PLK1
  inhibition at 10 µM: 2.86%
SYK
  inhibition at 10 µM: 2.18%
AKT1
  inhibition at 10 µM: 10.9%
ALK
  inhibition at 10 µM: 0%
Aurora A
  inhibition at 10 µM: 6.4%
BRAF
  inhibition at 10 µM: 0%
BRAF (V599E)
  inhibition at 10 µM: 25.2%
BTK
  inhibition at 10 µM: 19.3%
c-Kit
  inhibition at 10 µM: 0%
c-MET
  inhibition at 10 µM: 0%
c-Src
  inhibition at 10 µM: 0%
CDK1/cyclinB
  inhibition at 10 µM: 2.76%
EGFR
  inhibition at 10 µM: 0%
ERK1
  inhibition at 10 µM: 0%
FGFR3
  inhibition at 10 µM: 0%
FLT1/VEGFR1
  inhibition at 10 µM: 0%
FLT3 [2]
  inhibition at 10 µM: 73%
IGFIR
  inhibition at 10 µM: 0%
JAK3
  inhibition at 10 µM: 0.94%
JNK3
  inhibition at 10 µM: 0%
LYN
  inhibition at 10 µM: 0%
MEK1
  inhibition at 10 µM: 0%
P38a/MAPK14
  inhibition at 10 µM: 0%
PKA
  inhibition at 10 µM: 2.38%
RAFI
  inhibition at 10 µM: 15.7%
RON/MSTIR
  inhibition at 10 µM: 0%
ROS/ROS1
  inhibition at 10 µM: 7.4%
